Measured values as given in patent publication US11840517B2, “Lappaconitine derivative with analgesic activity, and preparation and application thereof” (priority 2021, dated 2023).
Read-outs that look alike come from different tables or passages of the source.

What was measured:
[1] = Median lethal dose (LD50) determination; type: in vivo, Kunming mice; details: both sexes, Kunming, mouse, in vivo, sc; subcutaneous, survival within 24 h, Probit regression
Experimental: (§1) The sample to be tested was dissolved with 0.1 mol/L HCl according to the amount of the substance ratio of 1:1, and diluted with physiological saline according to the required concentration. 10 mice in each group were randomly selected, half of which are male and half of which were female, and were placed in independent cages. Each mouse was injected subcutaneously with different sample solutions to be tested according to a dose of 0.1 mL/10 g body weight. In the preliminary toxicity experiment, the measured concentration was 100 mg/kg, and then based on the survival rate of the experimental animals in the preliminary experiment, the sample to be tested was set to at least 5 groups with different concentration dose according to the proportional series. The survival rate of mice within 24 h was recorded. The obtained dose-survival rate data was input into the SPSS software (version 17.2), and the LD50 of the sample was calculated according to the Probit regression method.

Kunming mice [2] = experiment: Median effective dose (ED50) determination, acetic acid-induced writhing; type: in vivo; details: for ED50: subcutaneous, writhing inhibition, Probit regression; for analgesic activity / ED50 compared with lappaconitine (in words): comment on Table 2
Experimental: (§2) 10 mice were randomly selected, male:female=1:1, were placed in independent cages. Each mouse was injected subcutaneously with the sample solution mentioned above at a dose of 0.1 mL/10 g body weight. After 15 min, a 0.7% acetic acid solution was intraperitoneally injected. The number of writhing reactions in each mouse within 15 minutes was recorded. The group that the mice were injected with physiological saline subcutaneously was the blank group; the group that the mice were injected with the sample to be tested was the experimental group; and the group that the mice were injected with lappaconitine was the positive group. The analgesic activity was represented by a percentage of the reduced number of writhing compared to the blank group (writhing inhibition rate), which were specifically as follows: writhing inhibition rate (analgesic activity)=(average number of writhing times in the blank group-average number of writhing times in the experimental group)/average number of writhing times in the blank group×100%.
The sample to be tested was dissolved with 0.1 mol/L HCl according to the amount of the substance ratio of 1:1, and diluted with physiological saline according to the proportional series to obtain at least 5 groups with different dose concentrations. The writhing inhibition rate of each dose group was tested according to the acetic acid-induced writhing method mentioned above. The obtained does-writhing inhibition data was entered into the statistical product and service solutions (SPSS) software (version 17.2), and the ED50 of the sample to be tested was calculated through the Probit regression method.

Kunming mice [3] = experiment: Analgesic activity by acetic acid-induced writhing method; type: in vivo; details: for inhibition in vivo at 10 mg/kg: Mus musculus, sc, read-out: Analgesia rate ± SEM (%); for analgesic activity (in words, Table 1): comment on Table 1
Experimental: The experimental animals were Kunming mice (male:female=1:1), weighed 22±2 g, which were provided by Chengdu dossy experimental animals Co., ltd., China. The mice were kept in the animal room of the School of Life Science and Engineering, Southwest Jiaotong University, where the animal room was set at a temperature of 23±2° C., a humidity of 55±5% and a photoperiod of 16:8 h (L:D). Before the experiment, the mice were freely fed for 2-3 days with water and feed to adapt to the new environment. Then, the mice were treated by water fasting for 12 h. 10 animals were allocated to each group to ensure that there are at least 6 sets of valid data in each group. The animal experiments were carried out in strict accordance with the national regulations on the management of experimental animals.
The compounds prepared in the examples provided herein and the positive control lappaconitine were all dissolved with 0.1 mol/L HCl according to the amount of the substance ratio of 1:1, and then diluted with physiological saline to a concentration to be determined. The samples to be tested were the compounds prepared the examples provided herein; the positive control was lappaconitine; and the blank control was physiological saline containing 0.1 mol/L HCl.
The animals in the control groups were subjected to the same treatment as those in the experimental group except that the samples to be test were replaced with physiological saline.
as §2

Kunming mice [4] = experiment: Median lethal dose (LD50) determination; type: in vivo
Experimental: as §1

[5] = Mus musculus, sc, read-out: ED50

CCN(CC)c1ccc(C(=O)Nc2ccccc2C(=O)O[C@@]23CC[C@H](OC)C45C2CC([C@H]4N(CC)C3)[C@@]2(O)C[C@H](OC)[C@H]3CC5[C@]2(O)[C@H]3OC)cc1 (some centres unmarked) [Compound 30]
LD50 [1]: 276 mg/kg
ED50 (Kunming mice [2]; [5]): 7.5 mg/kg
analgesic activity / ED50 compared with lappaconitine (in words) (Kunming mice [2]): same order of magnitude as that of lappaconitine
inhibition in vivo at 10 mg/kg (Kunming mice [3]): 63.9 ± 5.09%
analgesic activity (in words, Table 1) (Kunming mice [3]): significant activity

CCN1C[C@]2(OC(=O)c3ccccc3NC(=O)c3ccc(OC)cc3)CC[C@H](OC)C34C2CC([C@@H]13)[C@@]1(O)C[C@H](OC)[C@H]2CC4[C@]1(O)[C@H]2OC (some centres unmarked) [Compound 32]
LD50 [1]: 296 mg/kg
ED50 (Kunming mice [2]; [5]): 4.4 mg/kg
analgesic activity / ED50 compared with lappaconitine (in words) (Kunming mice [2]): same order of magnitude as that of lappaconitine
inhibition in vivo at 10 mg/kg (Kunming mice [3]): 62.8 ± 5.77%
analgesic activity (in words, Table 1) (Kunming mice [3]): significant activity

CCN1C[C@]2(OC(=O)c3ccccc3NS(=O)(=O)c3ccccn3)CC[C@H](OC)C34C2CC([C@@H]13)[C@@]1(O)C[C@H](OC)[C@H]2CC4[C@]1(O)[C@H]2OC (some centres unmarked) [Compound 3]
LD50 [1]: > 400 mg/kg
ED50 (Kunming mice [2]; [5]): 4.7 mg/kg
analgesic activity / ED50 compared with lappaconitine (in words) (Kunming mice [2]): same order of magnitude as that of lappaconitine
inhibition in vivo at 10 mg/kg (Kunming mice [3]): 71.2 ± 2.72%
analgesic activity (in words, Table 1) (Kunming mice [3]): significant activity

CCN1C[C@]2(OC(=O)c3ccccc3NS(=O)(=O)c3ccccc3)CC[C@H](OC)C34C2CC([C@@H]13)[C@@]1(O)C[C@H](OC)[C@H]2CC4[C@]1(O)[C@H]2OC (some centres unmarked) [Compound 1]
LD50 [1]: > 600 mg/kg
ED50 (Kunming mice [2]; [5]): 6.1 mg/kg
analgesic activity / ED50 compared with lappaconitine (in words) (Kunming mice [2]): same order of magnitude as that of lappaconitine
inhibition in vivo at 10 mg/kg (Kunming mice [3]): 84.3 ± 3.05%
analgesic activity (in words, Table 1) (Kunming mice [3]): significant activity

CCN1C[C@]2(OC(=O)c3ccccc3NC(=O)c3ccc(OC(C)C)cc3)CC[C@H](OC)[C@]34C1[C@H](CC23)[C@@]1(O)C[C@H](OC)[C@H]2CC4[C@]1(O)[C@H]2OC (some centres unmarked) [Compound 59]
LD50 [1]: 196 mg/kg
ED50 (Kunming mice [2]; [5]): 8.1 mg/kg
analgesic activity / ED50 compared with lappaconitine (in words) (Kunming mice [2]): same order of magnitude as that of lappaconitine
inhibition in vivo at 10 mg/kg (Kunming mice [3]): 61.1 ± 5.52%
analgesic activity (in words, Table 1) (Kunming mice [3]): significant activity

CCN1C[C@]2(OC(=O)c3ccccc3NC(C)=O)CC[C@H](OC)[C@@]34[C@@H]2C[C@@H]([C@@H]13)[C@@]1(O)C[C@H](OC)[C@H]2C[C@@H]4[C@]1(O)[C@H]2OC [Lappaconitine]
LD50 (Kunming mice [4]; subcutaneous, survival within 24 h, Probit regression): 11.7 mg/kg
ED50 (Kunming mice [2]): 3.5 mg/kg
Analgesia rate ± SEM (%) (Kunming mice [3]; Dosing concentration 3.5 mg/kg, subcutaneous, 15 min before i.p. 0.7% acetic acid, writhing inhibition vs blank group): 56.57 ± 6.57 %
experimental animal death from poisoning (Kunming mice [3]; dosing concentration of 10 mg/kg): more than half of the experimental animal death from poisoning

CCOc1ccc(C(=O)Nc2ccccc2C(=O)O[C@@]23CC[C@H](OC)C45C2CC([C@H]4N(CC)C3)[C@@]2(O)C[C@H](OC)[C@H]3CC5[C@]2(O)[C@H]3OC)cc1 (some centres unmarked) [Compound 31]
LD50 [1]: 315 mg/kg
ED50 (Kunming mice [2]; [5]): 6.6 mg/kg
analgesic activity / ED50 compared with lappaconitine (in words) (Kunming mice [2]): same order of magnitude as that of lappaconitine
inhibition in vivo at 10 mg/kg (Kunming mice [3]): 62.8 ± 5.41%
analgesic activity (in words, Table 1) (Kunming mice [3]): significant activity

CCN1C[C@]2(OC(=O)c3ccccc3NC(=O)c3ccc(N(C)C)cc3)CC[C@H](OC)C34C2CC([C@@H]13)[C@@]1(O)C[C@H](OC)[C@H]2CC4[C@]1(O)[C@H]2OC (some centres unmarked) [Compound 5]
LD50 [1]: 300 mg/kg
ED50 (Kunming mice [2]; [5]): 6.1 mg/kg
analgesic activity / ED50 compared with lappaconitine (in words) (Kunming mice [2]): same order of magnitude as that of lappaconitine
inhibition in vivo at 10 mg/kg (Kunming mice [3]): 62.1 ± 5.02%
analgesic activity (in words, Table 1) (Kunming mice [3]): significant activity

CCN1C[C@]2(OC(=O)c3ccccc3NS(=O)(=O)c3ccccc3OC)CC[C@H](OC)C34C2CC([C@@H]13)[C@@]1(O)C[C@H](OC)[C@H]2CC4[C@]1(O)[C@H]2OC (some centres unmarked) [Compound 2]
LD50 [1]: 300 mg/kg
ED50 (Kunming mice [2]; [5]): 5.5 mg/kg
analgesic activity / ED50 compared with lappaconitine (in words) (Kunming mice [2]): same order of magnitude as that of lappaconitine
inhibition in vivo at 10 mg/kg (Kunming mice [3]): 71.2 ± 3.8%
analgesic activity (in words, Table 1) (Kunming mice [3]): significant activity

CCN1C[C@]2(OC(=O)c3ccccc3NC(=O)OC)CC[C@H](OC)C34C2CC([C@@H]13)[C@@]1(O)C[C@H](OC)[C@H]2CC4[C@]1(O)[C@H]2OC (some centres unmarked) [Compound 4]
toxicity compared with lappaconitine (in words) (Kunming mice [4]; comment on Table 2): did not increase significantly
LD50 [1]: 10 mg/kg
ED50 (Kunming mice [2]; [5]): 1.2 mg/kg
analgesic activity / ED50 compared with lappaconitine (in words) (Kunming mice [2]): doubled compared with lappaconitine
inhibition in vivo at 10 mg/kg (Kunming mice [3]): 71.1 ± 5.97%
analgesic activity (in words, Table 1) (Kunming mice [3]): significant activity
